Data published in PubChem BioAssay (NCI).
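Briefly, cells in 96-well plates were exposed to five compound concentrations for 48 h, and endpoints were estimated by linear interpolation. GI50 is the concentration that inhibits growth by half. TGI denotes the concentration required for complete inhibition of growth.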

Legend:
Assay in all cases: inhibition of tumour cell growth, NCI panel, 48 h
[1] = tested on: U251 CNS
[2] = tested on: BT-549 breast
[3] = tested on: EKVX NSCLC
[4] = tested on: CAKI-1 renal
[5] = tested on: CCRF-CEM leukemia
[6] = tested on: MDA-MB-231 breast
[7] = tested on: HCT-116 colon
[8] = tested on: NCI-H23 lung
[9] = tested on: HOP-92 NSCLC
[10] = tested on: SK-MEL-28 melanoma
[11] = tested on: 786-0 renal
[12] = tested on: NCI-H522 lung
[13] = tested on: SN12C renal
[14] = tested on: MALME-3M melanoma
[15] = tested on: HOP-62 NSCLC
[16] = tested on: A498 renal
[17] = tested on: UO-31 renal
[18] = tested on: SR leukemia
[19] = tested on: SF-539 CNS

SMILES	TGI [1]	TGI [2]	TGI [3]	TGI [4]	TGI [5]	TGI [6]	TGI [7]	TGI [8]	TGI [9]	TGI [10]	TGI [11]	TGI [12]	TGI [13]	TGI [14]	TGI [15]	TGI [16]	TGI [17]	TGI [18]	TGI [19]	GI50 [14]
CCOC(=O)C1=c2[nH]c3cccc4cccc(c43)n2C(=O)CC1c1ccccc1 (stereo unspecified)	> 100 µM	> 100 µM	> 100 µM	> 100 µM	> 100 µM	> 100 µM	> 100 µM	> 100 µM	> 100 µM	> 100 µM	> 100 µM	> 100 µM	> 100 µM	> 100 µM	> 100 µM	> 100 µM	> 100 µM	> 100 µM	–	–
O=C1CCCC(=O)N1n1c(Cc2ccccc2)n[nH]c1=O	> 100 µM	> 100 µM	> 100 µM	> 100 µM	> 100 µM	> 100 µM	> 100 µM	> 100 µM	> 100 µM	> 100 µM	> 100 µM	> 100 µM	> 100 µM	> 100 µM	> 100 µM	> 100 µM	> 100 µM	> 100 µM	–	–
CCOC(=O)NC(C(=O)OCC)(N1CCN(c2cc3c(cc2F)c(=O)c(C(=O)O)cn3CC)CC1)C(F)(F)F (stereo unspecified)	> 100 µM	> 100 µM	56.9 µM	> 100 µM	> 100 µM	> 100 µM	> 100 µM	> 100 µM	> 100 µM	0.533 µM	> 100 µM	> 100 µM	> 100 µM	> 100 µM	> 100 µM	> 100 µM	> 100 µM	> 100 µM	> 100 µM	–
COC(=O)/C=C(/C(=O)OC)c1cc2ccc3c([nH]c4ccccc43)c(C)c-2c1	18.1 µM	23.1 µM	24.2 µM	> 100 µM	10.8 µM	15.1 µM	16.3 µM	24.7 µM	5.43 µM	30.2 µM	20.1 µM	5.83 µM	27 µM	19.6 µM	37.5 µM	23.5 µM	17.1 µM	8.59 µM	31.5 µM	–
COc1cccc(C2ON=C(c3ccccc3)N2C23CC4CC(CC(C4)C2)C3)c1 (stereo unspecified)	> 10 µM	> 10 µM	> 10 µM	> 10 µM	> 10 µM	> 10 µM	> 10 µM	> 10 µM	> 10 µM	> 10 µM	> 10 µM	> 10 µM	> 10 µM	> 10 µM	> 10 µM	> 10 µM	–	> 10 µM	> 10 µM	–
Cc1ccc(S(=O)(=O)N2c3ccccc3[C@H]3CCC=C[C@H]32)cc1	27.2 µM	> 100 µM	> 92.6 µM	> 100 µM	> 87.2 µM	> 100 µM	19.6 µM	52.3 µM	35.4 µM	> 96.1 µM	> 100 µM	6.35 µM	> 63.1 µM	39 µM	67.4 µM	46.2 µM	34.9 µM	65.2 µM	34 µM	–
CO/C(=C/C(=O)C(Cl)(Cl)Cl)CC/C(=C\C(=O)C(Cl)(Cl)Cl)OC	54.7 µM	83.2 µM	59.7 µM	72.2 µM	> 100 µM	> 100 µM	42.2 µM	62.7 µM	40.1 µM	80.5 µM	60.4 µM	57.5 µM	54.5 µM	66.4 µM	49.5 µM	> 100 µM	43.4 µM	51.7 µM	63.2 µM	–
O=C(NNCC(F)(F)F)c1ccncc1	> 100 µM	> 100 µM	> 100 µM	> 100 µM	> 100 µM	> 100 µM	> 100 µM	> 100 µM	> 100 µM	> 100 µM	> 100 µM	> 100 µM	> 100 µM	> 100 µM	> 100 µM	> 100 µM	> 100 µM	> 100 µM	> 100 µM	–
C=CCc1cc(C=C(C#N)C#N)cc(OC)c1O	> 100 µM	> 100 µM	> 100 µM	> 100 µM	> 100 µM	> 100 µM	> 100 µM	> 100 µM	> 100 µM	> 100 µM	> 100 µM	> 100 µM	–	> 100 µM	–	> 100 µM	> 100 µM	> 100 µM	> 100 µM	–
C[N+](C)(C)/N=C/c1ccc(O)c(O)c1	> 100 µM	> 100 µM	> 100 µM	> 100 µM	> 100 µM	> 100 µM	> 100 µM	> 100 µM	> 100 µM	> 96.4 µM	> 100 µM	> 100 µM	> 100 µM	> 100 µM	> 100 µM	> 100 µM	> 100 µM	> 100 µM	> 100 µM	–
c1ccc(-c2nnc(SCc3c[nH]c4ccccc34)n2-c2ccccc2)cc1	> 100 µM	98.7 µM	> 100 µM	> 100 µM	> 100 µM	> 100 µM	> 100 µM	> 100 µM	79.3 µM	> 100 µM	> 100 µM	> 100 µM	> 100 µM	> 100 µM	> 100 µM	56 µM	> 100 µM	> 100 µM	70.3 µM	–
Cc1ccc(C2N=C(N)NC3=C2CCOc2c3ccc3ccccc23)cc1 (stereo unspecified)	> 66.9 µM	> 79.8 µM	> 55.1 µM	28.5 µM	3.71 µM	32.7 µM	12.3 µM	> 79.5 µM	57.5 µM	> 100 µM	> 71.7 µM	> 100 µM	> 72 µM	> 40.6 µM	35.1 µM	41 µM	> 100 µM	> 100 µM	44.7 µM	4.7 µM
S=C(N/N=C/c1ccccn1)Nc1ccc(Cl)cc1	8.3 µM	> 68.1 µM	> 100 µM	30.5 µM	1.92 µM	> 100 µM	> 88.5 µM	> 100 µM	> 57.6 µM	> 100 µM	16.1 µM	0.18 µM	> 100 µM	> 29 µM	17.4 µM	59.9 µM	1.09 µM	> 100 µM	14.4 µM	–
CCCCCCCNC(P(=O)(O)O)P(=O)(O)O	> 100 µM	> 100 µM	> 100 µM	> 100 µM	> 100 µM	> 100 µM	> 100 µM	> 100 µM	> 100 µM	> 100 µM	> 100 µM	> 100 µM	> 100 µM	> 100 µM	> 100 µM	> 100 µM	> 100 µM	> 100 µM	> 100 µM	–
COc1cccc(CCNc2c(C#N)c3nc4ccccc4n3c3ccccc23)c1	> 100 µM	> 100 µM	> 100 µM	> 100 µM	> 100 µM	> 100 µM	> 61.5 µM	> 30.5 µM	> 100 µM	> 100 µM	> 75.9 µM	0.397 µM	> 70 µM	> 100 µM	> 100 µM	> 26.2 µM	> 100 µM	> 100 µM	> 100 µM	–
CC(C)COC(=O)OC(=O)c1ccc(N(C)Cc2cnc3nc(N)nc(N)c3n2)cc1	> 100 µM	97.8 µM	> 100 µM	> 100 µM	> 100 µM	> 100 µM	> 100 µM	> 100 µM	> 100 µM	> 100 µM	> 100 µM	> 100 µM	> 100 µM	> 100 µM	> 100 µM	> 100 µM	> 100 µM	> 100 µM	> 51.8 µM	–
COC1(OC)N=C(N)C2(C#N)C3(C(=O)N(C(C)C)N=C3C)C12C#N (stereo unspecified)	> 100 µM	> 100 µM	> 100 µM	> 100 µM	> 100 µM	> 100 µM	> 100 µM	> 100 µM	> 100 µM	> 100 µM	> 100 µM	> 100 µM	> 100 µM	> 100 µM	> 100 µM	> 100 µM	> 100 µM	> 100 µM	> 100 µM	–
Cc1c(-c2ccccc2)c(C#N)c2nnn(C3CCCCC3)c(=O)n12	> 100 µM	> 100 µM	> 100 µM	47.1 µM	> 100 µM	66 µM	> 100 µM	> 100 µM	80.8 µM	> 100 µM	> 100 µM	> 100 µM	> 100 µM	> 100 µM	46.6 µM	> 100 µM	6.85 µM	> 100 µM	> 100 µM	–
COC(=O)C(Cc1ccccc1)NP(=O)(O)OCC1OC(n2cc(I)c(=O)[nH]c2=O)CC1O (stereo unspecified)	> 100 µM	> 100 µM	> 100 µM	> 100 µM	> 100 µM	> 100 µM	> 100 µM	> 100 µM	> 100 µM	> 100 µM	> 100 µM	> 100 µM	> 100 µM	> 100 µM	> 100 µM	> 100 µM	> 100 µM	> 100 µM	> 100 µM	–
CC(=O)Oc1c2c(c(CC=C(C)C)c3c1C(=O)C1=C[C@@H]4CC5C(C)(C)OC(C/C=C(/C)C(=O)O)(C4=O)[C@@]15O3)OC(C)(CCC=C(C)C)C=C2 (stereo partly specified)	0.339 µM	0.461 µM	0.839 µM	0.409 µM	4.75 µM	0.779 µM	0.316 µM	1.01 µM	1.05 µM	0.378 µM	0.364 µM	0.281 µM	0.53 µM	0.558 µM	1.88 µM	1.82 µM	0.526 µM	53.9 µM	0.252 µM	–
